From publication PMC10572575, “Design, Synthesis, and Potent Anticancer Activity of Novel Indole-Based Bcl-2 Inhibitors” (International Journal of Molecular Sciences, 2023) come the findings set out here.

Data set [1] has as its system MCF-7 cells. Description: MTT cytotoxicity assay, MCF-7. It counts as cell-based. The note with it: Homo sapiens, MCF7, 48 h, mean ± SEM of three. On the procedure:
(§1) MDA-231 triple-negative breast cancer cells, MCF-7 breast cancer cells, and A549 adenocarcinomic human alveolar basal epithelial cells were maintained in Roswell Park Memorial Institute media (RPMI 1640, Sigma-Aldrich, St. Louis, MO, USA) supplemented with 10% foetal bovine serum and 1% penicillin/streptomycin. HDF human dermal normal fibroblast cells were cultured in Dulbecco’s Modified Eagle Medium (DMEM, Sigma-Aldrich, Eppelheim, Germany). MCF-7 breast cancer cell line was obtained from Cell Lines Service (CLS; Eppelheim, Germany). MDA-MB-231 breast cancer cell line and A549 cancer cells were obtained from the European Collection of Authenticated Cell Cultures (ECACC; Gillingham UK). Cell lines were maintained at 37 °C in a humidified incubator with 5% CO2.
(§2) The antiproliferative activity of compounds U1–6 was assessed using the 3-[4,5-dimethylthiazol-2-yl]-2,5-diphenyl tetrazolium bromide (MTT) assay, as previously described. Cancer cell lines were seeded in 96-well flatbottom plates at a density of 10^4 cells/well for 24 h. The cells were subsequently treated with U1–6 compounds at a screening concentration of 50 µM and incubated at 37 °C for 48 h in a humidified incubator containing 5% CO2. […] DMSO was used as a negative vehicle control (1% concentration). The culture media were then removed and incubated for 2 h with fresh 200 µL culture media containing 5 mg/mL MTT. After removing the culture media and dissolving the produced formazan crystals in 100 µL DMSO, they were incubated for another 30 min at 37 °C. The produced colour was measured at 570 nm using a microplate reader (Thermo-Scientific, Vantaa, Finland). The GraphPad Prism version 9.1 software was used to generate plots of absorbance versus the compound’s concentration. Three independent repeat experiments were performed for each concentration to ensure reproducibility. IC50 values were obtained from nonlinear regression plots of absorbance versus the log concentration of the tested compounds using the GraphPad Prism software version 5.0 (San Diego, CA, USA).

A further data set relates to MDA-MB-231 cells. The experiment in a line: MTT cytotoxicity assay, MDA-MB-231. The note with it: Homo sapiens, 48 h, mean ± SEM of three. The data set is classed as cell-based. The protocol:
as §1, §2

Data set [2] deals with HDF human dermal normal fibroblast cells. The experiment in a line: Safety profile on HDF normal fibroblasts. The data set is classed as cell-based. The note with it: 50 µM, 24 hrs. On the procedure:
as §1
as §2, with “h.” for “h. The cells were subsequently treated with U1–6 compounds at a screening concentration of 50 µM and incubated at 37 °C for 48 h in a humidified incubator containing 5% CO2.”

The next data set concerns A549 cells. Description: MTT cytotoxicity assay, A549. It counts as cell-based. The note with it: Homo sapiens, 48 h, mean ± SEM of three. The protocol:
as §1, §2

Data set [3] has as its system MCF-7 cells. The experiment in a line: Cell cycle assay (PI flow cytometry). The data set is classed as cell-based, human. The note with it: MCF-7, 24 h, at IC50 concentration. The protocol: DMSO vehicle was used as a negative control (1% concentration). The cells were collected, centrifuged, and fixed in 70% ethanol on ice for 20 min. The fixed cells were incubated for 1 h at room temperature with staining solution ([…] propidium iodide PI, 0.05% Triton X-100, 0.1 mg/mL RNaseA). A Gallios flow cytometer (Beckman Coulter, Brea, CA, USA) was used to measure the cell cycle proportion.

For another data set, the target named is T1, Bcl-2 protein (Homo sapiens, UniProt P10415).
T1 construct: purchased Thermo-Scientific BMS244-3
T1 sequence (P10415 whole entry): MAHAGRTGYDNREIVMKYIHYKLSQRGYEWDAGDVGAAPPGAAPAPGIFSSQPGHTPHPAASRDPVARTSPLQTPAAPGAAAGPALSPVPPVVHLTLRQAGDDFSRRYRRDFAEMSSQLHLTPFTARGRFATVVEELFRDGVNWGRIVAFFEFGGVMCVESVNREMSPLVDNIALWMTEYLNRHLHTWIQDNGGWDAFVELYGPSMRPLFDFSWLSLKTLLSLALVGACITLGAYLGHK
The experiment in a line: Bim ELISA binding assay (Bcl-2–Bim binding). The note with it: mean ± SEM of three, read-out: IC50 using ELISA against Bcl-2. The protocol: A Bim-binding assay (Thermo-Scientific, Catalogue No # BMS244-3, Vienna, Austria) was performed according to previously published data. PBS solution containing 0.05% Tween-20 was used to wash a streptavidin-coated 96-well plate. For immobilisation, biotinylated Bim peptide (residues 81–106) was diluted in SuperBlock blocking solution and applied to each well. After incubation, the plate was washed with 0.5% BSA in PBS with Tween-20 solution. […] After another wash, each well received anti-His antibody with horseradish peroxidase enzyme. Following incubation and washing, O-phenylenediamine and hydrogen peroxide solution were added for colour production. A plate reader (Thermo-Scientific, Vantaa, Finland) was used to measure the optical density at 450 nm. The reduction in Bim affinity was measured using a nonlinear regression curve (GraphPad Prism. Version 5.0), which was also utilized to generate the IC50 value of Bcl-2 inhibition.

The test system of data set [4] is MCF-7 cells. The experiment in a line: Annexin-V-FITC apoptosis assay. The note with it: MCF-7, 24 h. The data set is classed as cell-based, human. On the procedure:
The Annexin-V-FITC apoptosis detection kit (Catalog # k101-25, Biovision, Mountain View, USA) was used for the apoptosis experiment according to previously published data. MCF-7 cells were treated with U2 compound for 24 h. The negative control was 0.1% DMSO. The cells were collected via centrifugation and resuspended in 500 µL of 1X Binding Buffer. Treated and control cells were stained with 5 µL Annexin V-FITC and 5 µL propidium iodide (PI […]) and then incubated at room temperature for 5 min in the dark. Fluorescence-activated cell sorting (FACS) was quantified via flow cytometry. Flow cytometry (excision at 488 nm; emission at 530 nm) was used to examine Annexin V-FITC binding and PI staining using the FITC signal detector and a phycoerythrin emission signal detector [71].

For the compound `O=C(CSc1nnc(-c2c[nH]c3ccccc23)n1-c1ccc(F)cc1)Nc1ccc(NC(=O)CN2CCOCC2)cc1` [Compound U1, 2-(4-(4-Fluorophenyl)-5-(1H-indol-3-yl)-4H-1,2,4-triazol-3-ylthio)-N-(4-(2 morpholinoacetamido)phenyl)acetamide], the melting point was in the range of 208 to 210 °C. Moreover, inhibition in the data set on MCF-7 cells [1] was half-maximal at 5.05 ± 0.8 µM (IC50). The IC50 in the data set on MDA-MB-231 cells came out at 20.7 ± 0.85 µM. Moreover, in data set [2], the “Inhibitory activity against HDF cells compared with the negative control” value is recorded as “no significant change”. Also, the IC50 in the data set on A549 cells came out at 13.3 ± 0.58 µM.

With `COc1ccc(-n2c(SCC(=O)Nc3ccc(NC(=O)CN4CCOCC4)cc3)nnc2-c2c[nH]c3ccccc23)cc1` [Compound U2, 2-(5-(1H-Indol-3-yl)-4-(4-methoxyphenyl)-4H-1,2,4-triazol-3-ylthio)-N-(4-(2-morpholinoacetamido)phenyl)acetamide], the melting point was 173 to 175 °C. Also, half-maximal inhibition in the data set on MCF-7 cells [1] (IC50) required 0.83 ± 0.11 µM. The same compound displayed a concentration for half-maximal inhibition (IC50) in the data set on MDA-MB-231 cells of 5.22 ± 0.55 µM. In the data set on MCF-7 cells [3], the Cell cycle effect entry was “cell cycle arrest at the G1/S phase”. In addition, the half-maximal inhibitory concentration (IC50) on Bcl-2 protein is 1.2 ± 0.02 µM. Moreover, the “Inhibitory activity against HDF cells compared with the negative control” value in data set [2] is on record as “limited toxicity”. In the data set on MCF-7 cells [4], the “Increase in early apoptosis compared with control untreated cells” value was 43 fold and the “Increase in late apoptosis compared with control untreated cells” value was found to be 111 fold. Also, the IC50 with A549 cells was determined as 0.73 ± 0.07 µM.

Compound `Cc1ccc(-n2c(SCC(=O)Nc3ccc(NC(=O)CN4CCOCC4)cc3)nnc2-c2c[nH]c3ccccc23)cc1` [Compound U3, 2-(5-(1H-Indol-3-yl)-4-methylphenyl-4H-1,2,4-triazol-3-ylthio)-N-(4-(2-morpholinoacetamido)phenyl)acetamide] gave a melting point of 250 to 252 °C. Moreover, the midpoint of inhibition in the data set with MCF-7 cells [1], the IC50, lay at 1.17 ± 0.1 µM. The compound also yielded an IC50 in the data set with MDA-MB-231 cells of 4.07 ± 0.35 µM. Moreover, the IC50 at Bcl-2 protein is 11.1 ± 0.07 µM. Moreover, the “Inhibitory activity against HDF cells compared with the negative control” value in data set [2] is reported as “no significant change”. This compound also came in with an IC50 in the data set with A549 cells of 2.98 ± 0.19 µM.

`O=C(CSc1nnc(-c2c[nH]c3ccccc23)n1-c1cccc(Cl)c1)Nc1ccc(NC(=O)CN2CCOCC2)cc1` [Compound U4, 2-(4-(3-Chlorophenyl)-5-(1H-indol-3-yl)-4H-1,2,4-triazol-3-ylthio)-N-(4-(2-morpholinoacetamido)phenyl) acetamide]: the melting point was 220 to 222 °C. The IC50 with MCF-7 cells [1] is 11 ± 1.2 µM. The compound also returned an IC50 with MDA-MB-231 cells of 28.4 ± 1.79 µM. Besides, in data set [2], the “Inhibitory activity against HDF cells compared with the negative control” value was “no significant change”. In the data set with A549 cells, the midpoint of inhibition, the IC50, lay at 16.1 ± 1.4 µM.

Turning to `O=C(CSc1nnc(-c2c[nH]c3ccccc23)n1-c1ccc(Cl)cc1)Nc1ccc(NC(=O)CN2CCOCC2)cc1` [Compound U5, 2-(4-(4-Chlorophenyl)-5-(1H-indol-3-yl)-4H-1,2,4-triazol-3-ylthio)-N-(4-(2-morpholinoacetamido)phenyl)acetamide], the melting point lay within 208 to 210 °C. For the same compound, in the data set on MCF-7 cells [1], the IC50 is 34.4 ± 2.2 µM. For the same compound, in the data set on MDA-MB-231 cells, half-maximal inhibition (IC50) required 45.1 ± 1.15 µM. Moreover, the “Inhibitory activity against HDF cells compared with the negative control” value in data set [2] is recorded as “no significant change”. This compound also came in with an IC50 with A549 cells of 47.8 ± 3.7 µM.

`O=C(CSc1nnc(-c2c[nH]c3ccccc23)n1-c1ccc(Cl)c(Cl)c1)Nc1ccc(NC(=O)CN2CCOCC2)cc1` [Compound U6]: the melting point was in the range of 218 to 220 °C. Half-maximal inhibition with MCF-7 cells [1] (IC50) was put at 35.5 ± 2.14 µM. This compound also had an IC50 in the data set on MDA-MB-231 cells of 79.4 ± 4.04 µM. Also, the “Inhibitory activity against HDF cells compared with the negative control” value in data set [2] was “limited toxicity”. The half-maximal inhibitory concentration (IC50) in the data set on A549 cells was found to be 66.5 ± 0.62 µM.

On to `Cc1cc2c(C(C)C)c(O)c(O)c(C=O)c2c(O)c1-c1c(C)cc2c(C(C)C)c(O)c(O)c(C=O)c2c1O` [Gossypol, reference compound], for which the IC50 with MCF-7 cells [1] was determined as 4.43 ± 0.54 µM; with MDA-MB-231 cells, 5.5 ± 0.35 µM; in the data set on A549 cells it was 3.45 ± 0.4 µM.
